Paper PMC10821229, “Synthesis and Antiviral Activity of Novel β-D-N4-Hydroxycytidine Ester Prodrugs as Potential Compounds for the Treatment of SARS-CoV-2 and Other Human Coronaviruses” (Pharmaceuticals, 2023)
Entries after “also recorded” stand apart in the source; their conditions may differ.

Test system: HCoV-229E and three SARS-CoV-2 variants
Experiment: Antiviral effect against all tested coronavirus variants (text comparisons)
Assay type: cell-based, human coronavirus
Conditions: for antiviral effect against all tested coronavirus variants (in words): HCoV-229E and three SARS-CoV-2 variants

| SMILES | antiviral effect against all tested coronavirus variants (in words) | other results |
| --- | --- | --- |
| Cc1cccc(OCC(=O)OC[C@H]2O[C@@H](n3ccc(NO)nc3=O)[C@H](O)[C@@H]2O)c1 [SN_22, 5′-O-(3-Methylphenoxy)acetyl-N4-hydroxycytidine] | highest activity |  |
| O=C(OC[C@H]1O[C@@H](n2ccc(NO)nc2=O)[C@H](O)[C@@H]1O)C1(c2ccccc2)CC1 [SN_20, 5′-O-(1-Phenylcyclopropanoyl-1-carbonyl)-N4-hydroxycytidine] | no antiviral effect; also recorded: lowest activity |  |
| COc1cccc(CCC(=O)OC[C@H]2O[C@@H](n3ccc(NO)nc3=O)[C@H](O)[C@@H]2O)c1 [SN_23, 5′-O-3-(3-Methoxyphenyl)propanoyl-N4-hydroxycytidine] |  | times higher antiviral effect than SN_15 and SN_16 (compared with SN_15 and SN_16): 2–6 times |
| O=C(Cc1ccccc1F)OC[C@H]1O[C@@H](n2ccc(NO)nc2=O)[C@H](O)[C@@H]1O [SN_17, 5′-O-(2-Fluorophenyl)acetyl-N4-hydroxycytidine] |  | fold increase in antiviral activity compared to SN_18 (compared with 4-fluoro substituted conjugate SN_18): ≥ 2 fold |
